In US20250325625A1, “ANTIMICROBIAL ASSOCIATION IN THE TREATMENT OF P. AERUGINOSA BIOFILM-ASSOCIATED INFECTIONS” (Zambon S.P.A., priority 2022, published 2025):
≈ marks a conversion by molar mass, not a printed value. Like-named read-outs stand apart in the source and are kept apart here.

Experiments:
[1] = test system: P. aeruginosa strains; assay: Antimicrobial susceptibility (MIC), reference broth microdilution method; assay type: cell-based
Experimental: Fifteen clinical isolates were from CF, a MDR clinical isolate from Respiratory Tract Infection (RTI) from an Intensive Care Unit (ICU), and the reference strain P. aeruginosa PAO1 (Table 1). Identification was performed by MALDI-TOF MS (Bruker, Shimadzu). Antimicrobial susceptibility was determined using the reference broth microdilution method (CLSIMethods2018). Whole genome sequencing of clinical isolates was performed with the Illumina (San Diego, CA, USA) MiSeq platform, using a 2×150 bp paired-end approach. Raw reads were assembled using SPAdes (Bankevich et al. 2012 J Comput Biol 19(5):455-77.), and draft genomes were used to determine MLST- and O-types at the Oxford PubMLST site (https://pubmlst.org/) (Jolley et al. 2018 Wellcome Open Res 3:124) and at the Center for Genomic Epidemiology site (https://cge.cbs.dtu.dk/services/PAst-1.0/) (ThraneJCM2016), respectively. The complete genome of P. aeruginosa Z154 was obtained by combining results from Illumina with those obtained using the Oxford Nanopore Technologies (Oxford, UK) MinION platform, and de novo assembly was generated using Unicycler v0.4.4.

[2] = test system: collection of respiratory pathogens; details: high NAC concentrations; Landini et al. 2016; cited from earlier work
[3] = test system: P. aeruginosa Z154 and Z34 preformed biofilms in ASM; assay: Artificial Sputum Medium (ASM) biofilm model; assay type: cell-based
Experimental: Methods. The potential antibiofilm synergism of NAC/colistin combinations was further investigated using an in vitro ASM biofilm model (Kirchner et al. 2012 Immunology 64:e3857), in order to mimic P. aeruginosa biofilm conditions within the CF mucus. […] In brief, biofilms were grown in ASM in 24-well tissue culture treated plates, for 72 hours at 35° C. under static conditions. Preformed biofilms were then exposed to NAC 8000 mg/L and colistin 64 mg/L, alone and in combination. […] After 24 hours of exposure (i.e., 35° C., static conditions), bacterial biofilms were disrupted by 30 minutes of sonication followed by manual pipetting, and the median cfu per mL (cfu/mL) was determined following the same protocol described for the Nunc-TSP lid assay. Data from this biofilm model were obtained in at least three independent experiments, with at least twelve replicates per condition per experiment.

[4] = test system: P. aeruginosa preformed biofilms; assay: Biofilm susceptibility testing, Nunc-TSP lid system (Calgary biofilm device), preformed biofilms; assay type: cell-based; details: P. aeruginosa Z154, NAC 8000 mg/L
Experimental: In the present invention the Calgary biofilm device (also referred to as Nunc-TSP lid system in the experimental part) was the method selected to test the in vitro antibiofilm activity of colistin and NAC, alone or in combination. NAC stock solutions (100 g/L) were prepared immediately before use. NAC powder (Zambon, Bresso, Italy) was dissolved in sterile distilled water, pH was adjusted at 6.5-6.8 with NaOH 10 M and the solution was filtered through a 0.22-μm membrane filter. All experiments were performed in cation-adjusted Mueller-Hinton broth (CAMHB) (Becton Dickinson, Milan, Italy), unless otherwise specified, starting from an appropriately concentrated medium to avoid broth dilution when NAC solution were used.
Colistin Colistin stock solutions (10 mg/L) were prepared immediately before use, by dissolving colistin powder (colistin sulfate, AppliChem, Darmstadt, Germany) in sterile distilled water.
Assay. Biofilm susceptibility testing was first performed using the Nunc-TSP lid system (Thermo Fisher Scientific, Waltham, MA, USA), as described previously (Harrison J J et al., Nat Protoc, 2010; 5: 1236-54). Briefly, biofilms were grown for 24 hours in CAMHB at 35° C. under static conditions. […] Median cfu per peg (cfu/peg) was then determined by plating 10 μL of appropriate dilutions of the recovery medium onto tryptic soy agar (TSA) (Oxoid) and incubating for 24 hours at 35° C. […]

[5] = test system: P. aeruginosa Z154 planktonic culture; assay: Time-kill assays against planktonic cultures under aerobic and anaerobic conditions; assay type: cell-based; details: colistin concentration higher than 0.25 mg/L, data not shown
Experimental: Methods. Time-kill assays were performed according to CLSI guidelines (CLSI Methods M26A) with the colistin-susceptible strain Z154. Colistin 0.25 mg/L was tested alone and in combination with NAC 8000 mg/L under both aerobic and anaerobic conditions. […] The medium (CAMHB) used to obtain anoxic cultures was placed under anaerobic atmosphere by using AnaeroGen kit (Oxoid) for 3 days prior to use and during the whole experiment. The killing curves were carried out in borosilicate glass bottles with a final volume of 20 mL of CAMHB. At 0, 2, 4, 8 and 24 hours of exposure ten-fold dilutions were plated on TSA, and the number of cfu/mL was determined (detection limit, 17 cfu/mL). Data were obtained from at least four independent experiments, with two replicates per condition per experiment.

[6] = test system: P. aeruginosa strains; assay: Antimicrobial susceptibility (MIC), reference broth microdilution method; assay type: cell-based; details: isolate FC237, in the presence of NAC

CC(=O)N[C@@H](CS)C(=O)O [NAC, N-acetylcysteine]
MIC ([1]; Pseudomonas aeruginosa, PAO1, strain PAO1, non-mucoid, wound, read-out: MIC): > 64 mg/mL
MIC ([1]; Pseudomonas aeruginosa, strain FC237, non-mucoid, CF, colistin-resistant, read-out: MIC): > 32 mg/mL
MIC ([1]; Pseudomonas aeruginosa, strain FC238, non-mucoid, CF, colistin-resistant, read-out: MIC): > 32 mg/mL
MIC ([1]; Pseudomonas aeruginosa, strain FZ99, non-mucoid, RTI ICU, colistin-resistant, read-out: MIC): 64 mg/mL (≈ 392 mM)
MIC ([1]; Pseudomonas aeruginosa, strain M1, mucoid, CF, read-out: MIC): 16 mg/mL (≈ 98 mM)
MIC ([1]; Pseudomonas aeruginosa, strain M4, mucoid, CF, read-out: MIC): 32 mg/mL (≈ 196 mM)
MIC ([1]; Pseudomonas aeruginosa, strain M7, mucoid, CF, read-out: MIC): 64 mg/mL (≈ 392 mM)
MIC ([1]; Pseudomonas aeruginosa, strain M13, mucoid, CF, read-out: MIC): 32 mg/mL (≈ 196 mM)
MIC ([1]; Pseudomonas aeruginosa, strain M19, mucoid, CF, read-out: MIC): 64 mg/mL (≈ 392 mM)
MIC ([1]; Pseudomonas aeruginosa, strain M25, mucoid, CF, read-out: MIC): 16 mg/mL (≈ 98 mM)
MIC ([1]; Pseudomonas aeruginosa, strain M32, mucoid, CF, read-out: MIC): 16 mg/mL (≈ 98 mM)
MIC ([1]; Pseudomonas aeruginosa, strain M42, mucoid, CF, read-out: MIC): > 32 mg/mL
MIC ([1]; Pseudomonas aeruginosa, strain Z33, non-mucoid, CF, read-out: MIC): 16 mg/mL (≈ 98 mM)
MIC ([1]; Pseudomonas aeruginosa, strain Z34, non-mucoid, CF, read-out: MIC): > 16 mg/mL
MIC ([1]; Pseudomonas aeruginosa, strain Z35, non-mucoid, CF, read-out: MIC): 16 mg/mL (≈ 98 mM)
MIC ([1]; Pseudomonas aeruginosa, strain Z152, mucoid, CF, read-out: MIC): 8 mg/mL (≈ 49 mM)
MIC ([1]; Pseudomonas aeruginosa, strain Z154, mucoid, CF, read-out: MIC): 16 mg/mL (≈ 98 mM)
effect on activity of carbapenems [2]: compromised the activity of carbapenems
interference with activity of the most commonly used antibiotics [2]: do not interfere
antibiofilm activity of NAC alone ([3]; P. aeruginosa Z154, ASM model, NAC 8000 mg/L): not observed
antibiofilm activity of NAC alone [4]: observed

colistin [CST]
effect on planktonic cultures [5]: eradication of the planktonic cultures
colistin MIC reduced in the presence of NAC (fraction of MIC) [6]: 1/64
colistin MIC values ([1]; colistin-susceptible strains): 0.001 to 0.002 mg/mL
MIC ([1]; strain FC237, non-mucoid, CF, colistin-resistant): 0.512 mg/mL
MIC ([1]; strain FC238, non-mucoid, CF, colistin-resistant): 0.008 mg/mL
MIC ([1]; strain FZ99, non-mucoid, RTI ICU, colistin-resistant): 0.004 mg/mL
MIC ([1]; strain M1, mucoid, CF): 0.002 mg/mL
MIC ([1]; strain M4, mucoid, CF): 0.002 mg/mL
MIC ([1]; strain M7, mucoid, CF): 0.002 mg/mL
MIC ([1]; strain M13, mucoid, CF): 0.001 mg/mL
MIC ([1]; strain M19, mucoid, CF): 0.001 mg/mL
MIC ([1]; strain M25, mucoid, CF): 0.002 mg/mL
MIC ([1]; strain M32, mucoid, CF): 0.002 mg/mL
MIC ([1]; strain M42, mucoid, CF): 0.002 mg/mL
MIC ([1]; strain PAO1, non-mucoid, wound): 0.002 mg/mL
MIC ([1]; strain Z33, non-mucoid, CF): 0.001 mg/mL
MIC ([1]; strain Z34, non-mucoid, CF): 0.002 mg/mL
MIC ([1]; strain Z35, non-mucoid, CF): 0.001 mg/mL
MIC ([1]; strain Z152, mucoid, CF): 0.002 mg/mL
MIC ([1]; strain Z154, mucoid, CF): 0.002 mg/mL
concentration of colistin which allowed to observe a synergism ([3]; ASM model, with NAC 8000 mg/L): 32 ×MIC
antibiofilm activity of colistin in absence of NAC ([3]; higher colistin concentrations (>64 mg/L), data not shown): eradication of the biofilm cultures
colistin antibiofilm activity ([3]; lower colistin concentrations, preliminary experiments, data not shown): did not show either colistin antibiofilm activity
